Molecular target: T1, Human AMPK α2ß2γ1 (Homo sapiens, UniProt O43741+P54646)
T1 construct: The full length cDNAs of human AMPK ß2 (NM_005399.3) and human AMPK α2 (NM_006252.3); The full length cDNAs of human AMPK ß2 (NM_005399.3); 6xHis (N); made in house; host or cells: Escherichia coli BL21 CodonPlus (DE3)-RIL
Test: Test Example 2: evaluation of an activator for AMP-activated protein kinase (AMPK), LabChip mobility shift assay with CaMKK2-phosphorylated enzyme
Format: biochemical
Conditions: for EC150 (compound concentration showing 150% relative to the control (100%)): FL-Peptide 7 substrate, 25° C., 2 hours; for Emax: relative to control (100%), read-out: Emax (maximum rate of increase in activity within the measurement range)
Method: The full length cDNAs of human AMPK ß2 (NM_005399.3) and human AMPK α2 (NM_006252.3) were inserted into the MCS1 and MCS2 of the pETDuet-1 vector to prepare a human AMPK ß2 and human AMPK α2 (6× His tag at the 5′ terminus) expressing plasmid. The plasmid was cotransfected with an expression plasmid, in which the full length cDNA of human AMPK γ1 (NM_002733.3) had been inserted into pET28b(+), into BL21 CodonPlus (DE3)-RIL to obtain an expression strain. The expression strain was cultured in TB medium, followed by induction with 0.5 mM IPTG, and cultured at 25° C. for 3 hours and then harvested. After ultrasonication, supernatant was collected and applied to Histrap FF column (GE) and RESOURCE Q column (GE) to prepare 12.5 mg of purified sample containing three types of subunit from 1.8 L of broth.
Preparation method of human CaMKK2 used to impart activity to AMPK An expression vector, in which the full length cDNA of human CAMKK ß (NM_172226.1) had been inserted into pGEX-6P-3, was transfected into BL21 Star (DE3). The expression strain was cultured in TB medium, followed by induction with 0.5 mM IPTG, and cultured at 25° C. for 3 hours and then harvested. After ultrasonication, supernatant was collected and applied to GSTrap FF column (GE) to prepare 14 mg of GST-fused CAMKK ß from 720 ml of broth.
Thus, phosphorylation treatment was carried out as pretreatment.
Human AMPK α2ß2γ1 in an amount to give a conversion rate of approximately 10% by reaction for 2 hours, and CaMKK2 in an amount capable of sufficiently imparting activity to AMPK for one hour were mixed in a buffer solution consisting of a 50 mM HEPES-NaOH buffer solution (pH 7.0), 100 mM NaCl, 5 mM magnesium chloride, 0.1% bovine serum albumin, 0.2 mM sodium orthovanadate(V), 1 mM ethylene glycol-bis(2-aminoethyl ether)-N,N,N′,N′-tetraacetic acid (EGTA), 5 mM disodium ß-glycerophosphate, 1 mM dithiothreitol and 0.2 mM ATP, and the resulting liquid was left to stand at 25° C. for 1 to 1.5 hours to sufficiently phosphorylate AMPK.
After that, to the enzyme liquid, which had been subjected to phosphorylation treatment, a compound dissolved in DMSO was added so as to have a 1% DMSO concentration. The resulting liquid was left to stand for 10 minutes.
To the liquid, a substrate solution consisting of a 50 mM HEPES-NaOH buffer solution (pH 7.0), 100 mM NaCl, 10 mM magnesium chloride, 0.1% bovine serum albumin, 0.2 mM sodium orthovanadate(V), 1 mM ethylene glycol-bis(2-aminoethyl ether)-N,N,N′,N′-tetraacetic acid (EGTA), 5 mM disodium ß-glycerophosphate, 2 mM dithiothreitol, 0.4 mM ATP and 3 μM FL-Peptide 7 (manufactured by Caliper Life Sciences, Inc.) was added in equal amount (10 μl in total). The resulting liquid was allowed to react at 25° C. for 2 hours, and 10 μl of 20 mM EDTA was added thereto to stop the reaction.
To detect phosphorylated fluorescent substrates, the reaction mixture was applied to a measuring device, LabChip EZ Reader II manufactured by Caliper Life Science, Inc., for detecting fluorescence by using differences in mobility due to differences in charge. The setting conditions for the device were pressure, −1.5 PSI; upstream voltage, −2250 V; downstream voltage, −400 V; post sample buffer sip time, 40 seconds; final delay, 120 seconds; and peak order, Product First.
A conversion rate was calculated from the peak heights of the obtained substrate and product. The conversion rate when not containing a compound was used as a control, and a concentration dependent curve was made by plotting the rate of increase in activity to the control at each concentration of a compound.

T1 sequence (P54646 whole entry): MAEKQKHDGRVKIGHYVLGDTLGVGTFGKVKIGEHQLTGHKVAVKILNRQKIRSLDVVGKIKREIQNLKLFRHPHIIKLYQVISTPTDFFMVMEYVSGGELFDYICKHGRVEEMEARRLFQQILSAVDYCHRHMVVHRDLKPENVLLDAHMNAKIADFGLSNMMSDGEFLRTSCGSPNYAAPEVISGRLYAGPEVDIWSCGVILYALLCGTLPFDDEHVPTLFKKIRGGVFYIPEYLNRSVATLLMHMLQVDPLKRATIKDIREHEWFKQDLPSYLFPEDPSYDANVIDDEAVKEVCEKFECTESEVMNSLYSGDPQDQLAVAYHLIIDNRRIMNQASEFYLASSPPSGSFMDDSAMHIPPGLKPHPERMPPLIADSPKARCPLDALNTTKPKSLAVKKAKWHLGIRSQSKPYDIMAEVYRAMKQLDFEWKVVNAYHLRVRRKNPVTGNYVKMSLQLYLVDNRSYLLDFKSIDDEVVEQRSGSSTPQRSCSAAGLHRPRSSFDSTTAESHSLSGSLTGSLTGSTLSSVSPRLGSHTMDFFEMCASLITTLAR
T1 sequence (O43741 whole entry): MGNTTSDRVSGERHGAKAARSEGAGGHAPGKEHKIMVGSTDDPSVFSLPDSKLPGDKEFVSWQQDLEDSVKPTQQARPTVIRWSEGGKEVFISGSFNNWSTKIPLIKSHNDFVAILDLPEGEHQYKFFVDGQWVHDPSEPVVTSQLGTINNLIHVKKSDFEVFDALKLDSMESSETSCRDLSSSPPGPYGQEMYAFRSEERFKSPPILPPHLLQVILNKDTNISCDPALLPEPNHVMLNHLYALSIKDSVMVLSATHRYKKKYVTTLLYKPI
T1 sequence (P54619 whole entry partner): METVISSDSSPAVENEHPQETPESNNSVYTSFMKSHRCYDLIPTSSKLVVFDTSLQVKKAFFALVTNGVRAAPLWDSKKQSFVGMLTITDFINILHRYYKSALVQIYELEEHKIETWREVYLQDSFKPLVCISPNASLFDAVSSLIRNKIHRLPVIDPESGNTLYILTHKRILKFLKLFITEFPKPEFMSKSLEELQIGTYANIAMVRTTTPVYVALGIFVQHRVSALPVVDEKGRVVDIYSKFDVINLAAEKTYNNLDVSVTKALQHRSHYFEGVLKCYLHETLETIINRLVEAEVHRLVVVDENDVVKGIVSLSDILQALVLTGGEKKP

Compound | EC150 (compound concentration showing 150% relative to the control (100%)) | Emax
Cn1ccc(-c2cc(F)c3c(c2)CC[C@@H]3Nc2nc3nc(O[C@@H]4CO[C@H]5[C@@H]4OC[C@H]5O)[nH]c3cc2Cl)n1 [Compound I-2-70] | 5.2 nM | 583%
NC(=O)COc1cc(F)c2c(c1)CCC2Nc1nc2nc(O[C@@H]3CO[C@H]4[C@@H]3OC[C@H]4O)[nH]c2cc1Cl (stereo partly shown) [Compound I-1-42] | 2.1 nM | 391%
Cn1cccc(-c2cc(F)c3c(c2)CCC3Oc2nc3nc(O[C@@H]4CO[C@H]5[C@@H]4OC[C@H]5O)[nH]c3cc2Cl)c1=O (stereo partly shown) [Compound I-1-77] | 3.3 nM | 386%
CC(C)OCCOc1cc(F)c2c(c1)CCC2Nc1nc2nc(O[C@@H]3CO[C@H]4[C@@H]3OC[C@H]4O)[nH]c2cc1Cl (stereo partly shown) [Compound I-2-36] | 3.9 nM | 698%
O=S(=O)(NCCOc1cc(F)c2c(c1)CCC2Nc1nc2nc(O[C@@H]3CO[C@H]4[C@@H]3OC[C@H]4O)[nH]c2cc1Cl)C(F)F (stereo partly shown) [Compound I-2-32] | 9 nM | 714%
CCOCCOc1cc(F)c2c(c1)CC[C@@H]2Nc1nc2nc(O[C@@H]3CO[C@H]4[C@@H]3OC[C@H]4O)[nH]c2cc1Cl [Compound I-1-95] | 1.3 nM | 424%
O[C@@H]1CO[C@H]2[C@@H]1OC[C@H]2Oc1nc2nc(N[C@H]3CCc4cc(-c5ccc(C(F)(F)F)nc5)cc(F)c43)c(Cl)cc2[nH]1 [Compound I-2-67] | 29 nM | 683%
O[C@@H]1CO[C@H]2[C@@H]1OC[C@H]2Oc1nc2nc(NC3CCc4cc(OC5CC6(COC6)C5)cc(F)c43)c(Cl)cc2[nH]1 (stereo partly shown) [Compound I-2-60] | 6.7 nM | 634%
C/C=C/c1cc(F)c2c(c1)CCC2Oc1nc2nc(O[C@@H]3CO[C@H]4[C@@H]3OC[C@H]4O)[nH]c2cc1Cl (stereo partly shown) [Compound I-1-72] | 13 nM | 375%
O=c1[nH]cc(-c2cc(F)c3c(c2)CC[C@@H]3Nc2nc3nc(O[C@@H]4CO[C@H]5[C@@H]4OC[C@H]5O)[nH]c3cc2Cl)cc1F [Compound I-2-63] | 3.9 nM | 653%
OCC/C=C/c1cc(F)c2c(c1)CCC2Nc1nc2nc(O[C@@H]3CO[C@H]4[C@@H]3OC[C@H]4O)[nH]c2cc1Cl (stereo partly shown) [Compound I-1-100] | 3.5 nM | 441%
Cn1cc(-c2cc(F)c3c(c2)CCC3Nc2nc3nc(O[C@@H]4CO[C@H]5[C@@H]4OC[C@H]5O)[nH]c3cc2Cl)ccc1=O (stereo partly shown) [Compound I-1-106] | 1.4 nM | 462%
CC(C)(O)C#Cc1cc(F)c2c(c1)CC[C@@H]2Nc1nc2nc(O[C@@H]3CO[C@H]4[C@@H]3OC[C@H]4O)[nH]c2cc1Cl [Compound I-2-77] | 3.8 nM | 650%
OCCCOc1cc(F)c2c(c1)CCC2Nc1nc2nc(O[C@@H]3CO[C@H]4[C@@H]3OC[C@H]4O)[nH]c2cc1Cl (stereo partly shown) [Compound I-1-81] | 1.6 nM | 387%
Cn1ccc(-c2cc(F)c3c(c2)CCC3Nc2nc3nc(O[C@@H]4CO[C@H]5[C@@H]4OC[C@H]5O)[nH]c3cc2Cl)cc1=O (stereo partly shown) [Compound I-1-39] | 2.9 nM | 384%
O[C@@H]1CO[C@H]2[C@@H]1OC[C@H]2Oc1nc2nc(NC3CCc4cc(OCCOC5CCCC5)cc(F)c43)c(Cl)cc2[nH]1 (stereo partly shown) [Compound I-2-42] | 9.1 nM | 600%
O[C@@H]1CO[C@H]2[C@@H]1OC[C@H]2Oc1nc2nc(NC3CCc4cc(NCC(F)(F)F)cnc43)c(Cl)cc2[nH]1 (stereo partly shown) [Compound I-1-70] | 21 nM | 384%
O[C@@H]1CO[C@H]2[C@@H]1OC[C@H]2Oc1nc2nc(N[C@H]3CCc4cc(-c5cnn(C6COC6)c5)cc(F)c43)c(Cl)cc2[nH]1 [Compound I-2-74] | 1.5 nM | 609%
COCOCCOc1cc(F)c2c(c1)CCC2Nc1nc2nc(O[C@@H]3CO[C@H]4[C@@H]3OC[C@H]4O)[nH]c2cc1Cl (stereo partly shown) [Compound I-2-44] | 3.8 nM | 595%
O[C@@H]1CO[C@H]2[C@@H]1OC[C@H]2Oc1nc2nc(NC3CCc4cc(OCCN5CCCCC5)cc(F)c43)c(Cl)cc2[nH]1 (stereo partly shown) [Compound I-1-38] | 8 nM | 392%
CS(=O)(=O)NCCOc1cc(F)c2c(c1)CCC2Nc1nc2nc(O[C@@H]3CO[C@H]4[C@@H]3OC[C@@H]4F)[nH]c2cc1Cl (stereo partly shown) [Compound I-2-35] | 10 nM | 679%
O[C@@H]1CO[C@H]2[C@@H]1OC[C@H]2Oc1nc2nc(NC3CCc4cc(OCCOCC(F)F)cc(F)c43)c(Cl)cc2[nH]1 (stereo partly shown) [Compound I-2-59] | 4.5 nM | 634%
Cn1nccc1-c1cc(F)c2c(c1)CCC2Nc1nc2nc(O[C@@H]3CO[C@H]4[C@@H]3OC[C@H]4O)[nH]c2cc1Cl (stereo partly shown) [Compound I-2-23] | 12 nM | 709%
COC/C=C/c1cc(F)c2c(c1)CCC2Nc1nc2[nH]c(O[C@@H]3CO[C@H](CO)C3)nc2cc1Cl (stereo partly shown) [Compound I-1-24] | 25 nM | 423%
CS(C)(=O)=Nc1cc(F)c2c(c1)CC[C@@H]2Nc1nc2nc(O[C@@H]3CO[C@H]4[C@@H]3OC[C@H]4O)[nH]c2cc1Cl [Compound I-2-08] | 3.5 nM | 688%
CC(C)(C)OCCOc1cc(F)c2c(c1)CCC2Nc1nc2nc(O[C@@H]3CO[C@H]4[C@@H]3OC[C@H]4O)[nH]c2cc1Cl (stereo partly shown) [Compound I-2-43] | 31 nM | 612%
CN(C)c1ncc(-c2cc(F)c3c(c2)CC[C@@H]3Nc2nc3nc(O[C@@H]4CO[C@H]5[C@@H]4OC[C@H]5O)[nH]c3cc2Cl)cn1 [Compound I-2-62] | 9.4 nM | 638%
O[C@@H]1CO[C@H]2[C@@H]1OC[C@H]2Oc1nc2nc(NC3CCc4cc(-c5ccnnc5)cc(F)c43)c(Cl)cc2[nH]1 (stereo partly shown) [Compound I-1-91] | 1.2 nM | 466%
COCC(=O)Nc1cc(F)c2c(c1)CCC2Nc1nc2nc(O[C@@H]3CO[C@H]4[C@@H]3OC[C@H]4O)[nH]c2cc1Cl (stereo partly shown) [Compound I-1-105] | 4.1 nM | 434%

Source: patent US20190135834A1, “5-SUBSTITUTED AZABENZIMIDAZOLE DERIVATIVE HAVING ???? ACTIVATION ACTION” (Shionogi & Co., Ltd., priority 2016, published 2019)
